Values after ≈ are worked out from the molar mass of the structure shown. Like-named read-outs stand apart in the source and are kept apart here.
Tests used:
Assay in all cases: MIC, agar dilution, multipoint inoculator
[1] = test system: S. aureus; format: cell-based, Staphylococcus aureus; settings: upper value of MIC reading
Summary of the method: (§1)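 Each strain was spot-inoculated (10^4 CFU) onto Mueller Hinton agar plates carrying compound dilutions, using a multipoint device, and the MIC was recorded.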

[2] = test system: MRSA; format: cell-based, methicillin-resistant Staphylococcus aureus; settings: for MIC: upper value of MIC reading; for MRSA MIC range: panel of ten MRSA strains (clinical isolates)
Summary of the method: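 Agar dilution MIC on Mueller Hinton agar, multipoint inoculator delivering 10^4 colony forming units per spot. MRSA values are ranges across ten clinical MRSA strains; S. aureus NCTC 6571 as reference strain.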

[3] = test system: E. faecium; format: cell-based, Enterococcus faecium; settings: upper value of MIC reading
Summary of the method: as §1

[4] = test system: S. epidemisis; format: cell-based, Staphylococcus epidermidis; settings: upper value of MIC reading
Summary of the method: as §1

[5] = test system: B. bronchiseptica; format: cell-based; settings: B. bronchiseptica NCTC 8344, upper value of MIC reading
Summary of the method: as §1

[6] = test system: E. faecalis; format: cell-based; settings: upper value of MIC reading
Summary of the method: as §1

[7] = test system: S. aboni; format: cell-based; settings: S. aboni NCTC 6017; upper value of MIC reading
Summary of the method: as §1

[8] = test system: S. haemolyticus; format: cell-based; settings: S. haemolyticus Isolate 1, upper value of MIC reading
Summary of the method: as §1

[9] = test system: S. maltophilia; format: cell-based; settings: S. maltophilia NCTC 10257, upper value of MIC reading
Summary of the method: as §1

[10] = test system: E. coli; format: cell-based, Escherichia coli; settings: Escherichia coli, 18 h, upper value of MIC reading
Experimental: (§2) This activity was measured using a multipoint inoculator method as follows. The MIC for each compound was measured using an agar dilution method (Onda, H., et al., Int. J. Antimicrob. Agents. 18, 263 (2001)) (Mueller Hinton agar) by means of a multipoint inoculator delivering 10^4 colony forming units per spot.

[11] = test system: K. pneumoniae; format: cell-based, Klebsiella pneumoniae; settings: K. pneumoniae 327, upper value of MIC reading
Experimental: as §2

[12] = test system: S. marcesens; format: cell-based, Serratia marcescens; settings: S. marcesens 4444, upper value of MIC reading
Experimental: as §2

[13] = test system: P. auriginosa; format: cell-based, Pseudomonas aeruginosa; settings: P. auriginosa NCTC 6749, upper value of MIC reading
Experimental: as §2

[14] = test system: E. cloacae; format: cell-based, Enterobacter cloacae; settings: E. cloacae NCTC 11582, upper value of MIC reading
Experimental: as §2

SMILES: CC1(C)S[C@@H]2[C@H](NC(=O)[C@H](N)c3ccccc3)C(=O)N2[C@H]1C(=O)O [Amp., Ampicillin, reference compound]
- MIC ([1]; Staphylococcus aureus, 18 h, S. aureus Cowan 1, read-out: MIC): 0.05 µg/mL (≈ 0.143 µM)
- MIC ([1]; Staphylococcus aureus, NCTC6571, 18 h, S. aureus NCTC 6571, read-out: MIC): 0.05 µg/mL (≈ 0.143 µM)
- MIC ([1]; Staphylococcus aureus, NCTC10788, 18 h, S. aureus NCTC 10788, read-out: MIC): 0.05 µg/mL (≈ 0.143 µM)
- MIC ([2]; Staphylococcus aureus, 18 h, MRSA Isolate 1, read-out: MIC): 0.12 µg/mL (≈ 0.343 µM)
- MIC ([2]; Staphylococcus aureus, 18 h, MRSA Isolate 2, read-out: MIC): 8 µg/mL (≈ 22.9 µM)
- MIC ([2]; Staphylococcus aureus, 18 h, MRSA Isolate 3, read-out: MIC): 8 µg/mL (≈ 22.9 µM)
- MIC ([2]; Staphylococcus aureus, 18 h, MRSA Isolate 4, read-out: MIC): 8 µg/mL (≈ 22.9 µM)
- MIC ([2]; Staphylococcus aureus, 18 h, MRSA Isolate 5, read-out: MIC): 8 µg/mL (≈ 22.9 µM)
- MIC ([2]; Staphylococcus aureus, 18 h, MRSA Isolate 6, read-out: MIC): 8 µg/mL (≈ 22.9 µM)
- MIC ([2]; Staphylococcus aureus, 18 h, MRSA Isolate 7, read-out: MIC): 8 µg/mL (≈ 22.9 µM)
- MIC ([2]; Staphylococcus aureus, 18 h, MRSA Isolate 8, read-out: MIC): 8 µg/mL (≈ 22.9 µM)
- MIC ([2]; Staphylococcus aureus, 18 h, MRSA Isolate 9, read-out: MIC): 8 µg/mL (≈ 22.9 µM)
- MIC ([2]; Staphylococcus aureus, 18 h, MRSA Isolate 10, read-out: MIC): 8 µg/mL (≈ 22.9 µM)
- MIC ([3]; Enterococcus faecium, 18 h, E. faecium ACTCC 10541, read-out: MIC): 2 µg/mL (≈ 5.72 µM)
- MIC ([3]; Enterococcus faecium, NCTC7171, 18 h, E. faecium NCTC 7171, read-out: MIC): 1 µg/mL (≈ 2.86 µM)
- MIC ([4]; Staphylococcus epidermidis, 18 h, S. epidemisis Isolate 1, read-out: MIC): 8 µg/mL (≈ 22.9 µM)
- MIC ([4]; Staphylococcus epidermidis, NCTC11047, 18 h, S. epidemisis NCTC 11047, read-out: MIC): 4 µg/mL (≈ 11.4 µM)
- MIC ([5]; Bordetella bronchiseptica, NCTC8344, 18 h, read-out: MIC): 1 µg/mL (≈ 2.86 µM)
- MIC ([6]; Enterococcus faecalis, 18 h, E. faecalis EBH1, read-out: MIC): 0.05 µg/mL (≈ 0.143 µM)
- MIC ([6]; Enterococcus faecalis, 18 h, E. faecalis Isolate 1, read-out: MIC): 0.05 µg/mL (≈ 0.143 µM)
- MIC ([6]; Enterococcus faecalis, 18 h, E. faecalis Isolate 2, read-out: MIC): 0.05 µg/mL (≈ 0.143 µM)
- MIC ([6]; Enterococcus faecalis, 18 h, E. faecalis Isolate 3, read-out: MIC): 0.05 µg/mL (≈ 0.143 µM)
- MIC ([6]; Enterococcus faecalis, 18 h, E. faecalis Isolate 4, read-out: MIC): 2 µg/mL (≈ 5.72 µM)
- MIC ([6]; Enterococcus faecalis, 18 h, E. faecalis Isolate 5, read-out: MIC): 2 µg/mL (≈ 5.72 µM)
- MIC ([6]; Enterococcus faecalis, NCTC5957, 18 h, E. faecalis NCTC 5957, read-out: MIC): 2 µg/mL (≈ 5.72 µM)
- MIC [7]: 0.05 µg/mL (≈ 0.143 µM)
- MIC ([8]; Staphylococcus haemolyticus, 18 h, read-out: MIC): 1 µg/mL (≈ 2.86 µM)
- MIC ([9]; Stenotrophomonas maltophilia, NCTC10257, 18 h, read-out: MIC): 16 µg/mL (≈ 45.8 µM)
- MIC ([10]; E. coli W3110R+): > 16 µg/mL
- MIC ([10]; E. coli W3110R−): 1 µg/mL (≈ 2.86 µM)
- MIC ([11]; Klebsiella pneumoniae, 18 h, read-out: MIC): > 16 µg/mL
- MIC ([12]; Serratia marcescens, 18 h, read-out: MIC): 8 µg/mL (≈ 22.9 µM)
- MIC ([13]; Pseudomonas aeruginosa, NCTC6749, 18 h, read-out: MIC): 16 µg/mL (≈ 45.8 µM)
- MIC ([14]; Enterobacter cloacae, NCTC11582, 18 h, read-out: MIC): 16 µg/mL (≈ 45.8 µM)

SMILES: Oc1cc(O)c(C=NNc2ccccn2)c(O)c1 [HDcd]
- MIC ([1]; S. aureus Cowan 1): 256 µg/mL (≈ 1040 µM)
- MIC ([1]; S. aureus NCTC 6571): 256 µg/mL (≈ 1040 µM)
- MIC ([1]; S. aureus NCTC 10788): 256 µg/mL (≈ 1040 µM)
- MIC ([2]; MRSA Isolate 1, in µg/mL): 256
- MIC ([2]; MRSA Isolate 2, in µg/mL): 256
- MIC ([2]; MRSA Isolate 3, in µg/mL): 256
- MIC ([2]; MRSA Isolate 4, in µg/mL): 256
- MIC ([2]; MRSA Isolate 5, in µg/mL): 256
- MIC ([2]; MRSA Isolate 6, in µg/mL): 256
- MIC ([2]; MRSA Isolate 7, in µg/mL): 256
- MIC ([2]; MRSA Isolate 8, in µg/mL): 256
- MIC ([2]; MRSA Isolate 9, in µg/mL): 256
- MIC ([2]; MRSA Isolate 10, in µg/mL): 256
- MRSA MIC range [2]: 128 to 256 µg/mL
- MIC ([3]; E. faecium ACTCC 10541): 256 µg/mL (≈ 1040 µM)
- MIC ([3]; E. faecium NCTC 7171): 256 µg/mL (≈ 1040 µM)
- MIC ([4]; S. epidemisis Isolate 1): 128 µg/mL (≈ 522 µM)
- MIC ([4]; S. epidemisis NCTC 11047): 128 µg/mL (≈ 522 µM)
- MIC [5]: 256 µg/mL (≈ 1040 µM)
- MIC ([6]; E. faecalis EBH1): 256 µg/mL (≈ 1040 µM)
- MIC ([6]; E. faecalis Isolate 1): 128 µg/mL (≈ 522 µM)
- MIC ([6]; E. faecalis Isolate 2): 128 µg/mL (≈ 522 µM)
- MIC ([6]; E. faecalis Isolate 3): 128 µg/mL (≈ 522 µM)
- MIC ([6]; E. faecalis Isolate 4): 256 µg/mL (≈ 1040 µM)
- MIC ([6]; E. faecalis Isolate 5): 128 µg/mL (≈ 522 µM)
- MIC ([6]; E. faecalis NCTC 5957): 256 µg/mL (≈ 1040 µM)
- MIC [7]: 128 µg/mL (≈ 522 µM)
- MIC [8]: 128 µg/mL (≈ 522 µM)
- MIC [9]: 128 µg/mL (≈ 522 µM)
- MIC [11]: 256 µg/mL (≈ 1040 µM)
- MIC [12]: 256 µg/mL (≈ 1040 µM)
- MIC [13]: 256 µg/mL (≈ 1040 µM)
- MIC [14]: 256 µg/mL (≈ 1040 µM)

SMILES: O=[N+]([O-])c1cc(Br)cc(C=NNc2ccccn2)c1O [HDcl]
- MIC ([1]; S. aureus Cowan 1): 128 µg/mL (≈ 380 µM)
- MIC ([1]; S. aureus NCTC 6571): 128 µg/mL (≈ 380 µM)
- MIC ([1]; S. aureus NCTC 10788): 128 µg/mL (≈ 380 µM)
- MIC ([2]; MRSA Isolate 1, in µg/mL): 128
- MIC ([2]; MRSA Isolate 2, in µg/mL): 128
- MIC ([2]; MRSA Isolate 3, in µg/mL): 128
- MIC ([2]; MRSA Isolate 4, in µg/mL): 128
- MIC ([2]; MRSA Isolate 5, in µg/mL): 128
- MIC ([2]; MRSA Isolate 6, in µg/mL): 128
- MIC ([2]; MRSA Isolate 7, in µg/mL): 128
- MIC ([2]; MRSA Isolate 8, in µg/mL): 128
- MIC ([2]; MRSA Isolate 9, in µg/mL): 128
- MIC ([2]; MRSA Isolate 10, in µg/mL): 128
- MRSA MIC range [2]: 64 to 128 µg/mL
- MIC ([3]; E. faecium ACTCC 10541): 128 µg/mL (≈ 380 µM)
- MIC ([3]; E. faecium NCTC 7171): 128 µg/mL (≈ 380 µM)
- MIC ([4]; S. epidemisis Isolate 1): 128 µg/mL (≈ 380 µM)
- MIC ([4]; S. epidemisis NCTC 11047): 64 µg/mL (≈ 190 µM)
- MIC [5]: 128 µg/mL (≈ 380 µM)
- MIC ([6]; E. faecalis EBH1): 128 µg/mL (≈ 380 µM)
- MIC ([6]; E. faecalis Isolate 1): 128 µg/mL (≈ 380 µM)
- MIC ([6]; E. faecalis Isolate 2): 32 µg/mL (≈ 94.9 µM)
- MIC ([6]; E. faecalis Isolate 3): 16 µg/mL (≈ 47.5 µM)
- MIC ([6]; E. faecalis Isolate 4): 128 µg/mL (≈ 380 µM)
- MIC ([6]; E. faecalis Isolate 5): 128 µg/mL (≈ 380 µM)
- MIC ([6]; E. faecalis NCTC 5957): 128 µg/mL (≈ 380 µM)
- MIC [7]: 128 µg/mL (≈ 380 µM)
- MIC [8]: 128 µg/mL (≈ 380 µM)
- MIC [9]: 128 µg/mL (≈ 380 µM)
- MIC [11]: 128 µg/mL (≈ 380 µM)
- MIC [12]: 256 µg/mL (≈ 759 µM)
- MIC [13]: 128 µg/mL (≈ 380 µM)
- MIC [14]: 256 µg/mL (≈ 759 µM)

From patent US20080096894A1, “Anti-Bacterial Compounds” (ASTON UNIVERSITY, priority 2005, published 2008)
